Data taken from patent publication US7435540B2 (IDEXX Corporation, priority 2002, dated 2008).

Tests used:
[1] = molecular target: mouse PrP^Sc (Mus musculus, UniProt P04925)
[2] = molecular target: bovine PrP^Sc (Bos taurus, UniProt P10279)
[3] = molecular target: PrP^Sc (Mus musculus, UniProt P04925)
[4] = test system: PrP^Sc
[5] = molecular target: PrP^C (Mesocricetus auratus, UniProt P04273)
Sequence of PrP^C (P04273 23-231 limits assumed): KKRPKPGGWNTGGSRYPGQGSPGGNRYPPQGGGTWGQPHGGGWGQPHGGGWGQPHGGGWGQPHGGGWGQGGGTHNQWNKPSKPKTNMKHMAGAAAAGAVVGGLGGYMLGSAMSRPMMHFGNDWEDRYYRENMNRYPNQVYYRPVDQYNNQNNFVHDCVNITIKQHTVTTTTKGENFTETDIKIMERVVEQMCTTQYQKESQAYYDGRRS

Sequence of PrP^Sc (Mus musculus, UniProt P04925) (P04925 23-230 limits assumed): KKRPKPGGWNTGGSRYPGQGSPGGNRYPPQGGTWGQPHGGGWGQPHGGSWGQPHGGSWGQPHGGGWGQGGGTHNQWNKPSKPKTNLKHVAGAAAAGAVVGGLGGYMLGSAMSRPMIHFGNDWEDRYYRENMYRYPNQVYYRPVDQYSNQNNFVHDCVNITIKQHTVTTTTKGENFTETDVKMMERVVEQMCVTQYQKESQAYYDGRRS
Sequence of mouse PrP^Sc (P04925 23-230 limits assumed): as above
Sequence of bovine PrP^Sc (P10279 25-241 limits assumed): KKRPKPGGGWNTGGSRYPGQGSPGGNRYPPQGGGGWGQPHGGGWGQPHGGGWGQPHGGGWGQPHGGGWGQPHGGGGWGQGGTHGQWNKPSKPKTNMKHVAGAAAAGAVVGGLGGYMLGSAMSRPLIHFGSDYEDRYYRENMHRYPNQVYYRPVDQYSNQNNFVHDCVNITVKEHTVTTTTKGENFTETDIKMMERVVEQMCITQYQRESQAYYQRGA

| Sequence | competition with YYRRYYRYY beads for capture of mouse PrP^Sc [1] | precipitation of PrP^Sc from scrapie mouse brain lysate [3] | PrP^Sc selective binding / capture [4] | further results |
| --- | --- | --- | --- | --- |
| YARRAYRAY | failed to compete | not with YAR or AYR repeats | – | capture of PrP^Sc from BSE-positive bovine brain lysate [2]: failed to capture PrP^Sc |
| YSAASYASY | compete | precipitation of PrP^Sc was observed | – | – |
| NHSTHNTGH | – | – | negative for PrP^Sc selective capture | – |
| YYRRYYRYY | – | precipitation of PrP^Sc was observed | – | precipitation of normal isoform PrP^C from normal hamster brain lysate [5]: not the normal isoform; capture of PrP^Sc from BSE-positive bovine brain lysate [2]: captures PrP^Sc |
| DEAYYKGWFAY | – | – | negative for PrP^Sc selective capture | – |
| YRAARYRAY | – | – | shown to selectively bind PrP^Sc | – |
| DRYYWYFDV | – | – | negative for PrP^Sc selective capture | – |
| YYAAYYAYY | compete | precipitation of PrP^Sc was observed | – | – |
| AYRRYARYA | – | not with YAR or AYR repeats | – | – |
| YARYARYAR | – | – | shown to selectively bind PrP^Sc | – |
